Paper PMC7534330, “UHPLC-MS/MS method for pharmacokinetic and bioavailability determination of five bioactive components in raw and various processed products of Polygala tenuifolia in rat plasma” (Pharmaceutical Biology, 2020)
Like-named read-outs stand apart in the source and are kept apart here.

Key:
[1] = Pharmacokinetics of five components in rat plasma after oral administration of RPT, LPT and HPT extracts (UHPLC-MS/MS); settings: male, SD, in vivo, 1.9 g/kg, rat plasma, mean ± SD; for AUC(0-t): n = 6, read-out: AUC0-t; for AUC(0-inf): n = 6, read-out: AUC0-∞; for Cmax: n = 6, read-out: Cmax; for MRT last: n = 6, read-out: MRT0-t; for Tmax: n = 6, read-out: Tmax; for half-life: n = 6, read-out: t1/2 (converted)
Protocol: A Thermo Hypersil Gold C18 column (3.0 × 100 mm, i.d.; 3 μm) was used for chromatographic separation. An aqueous 10 mM ammonium acetate solution (A) and acetonitrile (B) were selected as the mobile phase components. The optimal gradient program involved the following steps: 5% B (0–1 min), changing to 85% B (1–3.5 min), 85% B (3.5–4.0 min), changing to 5% B (4.0–4.1 min) and 5% B (4.1–5.0 min). The flow rate was set to 0.4 mL/min, the autosampler was maintained at 4 °C and the injection volume was 5 μL.
UHPLC-MS/MS was conducted by an Applied Biosystems (AB) Sciex Exion LC system (Foster City, CA) connected to a 6500 + triple quad tandem mass spectrometer with an electrospray ionization source. All detection and quantifications were carried out in positive multiple reaction monitoring (MRM) mode. The optimized parameters were programmed as follows: ion source temperature, 500 °C; curtain gas pressure, 30 kPa; ion source gas 1 pressure, 55 kPa; ion source gas 2 pressure, 55 kPa; and ion spray voltage, […]. The chemical structures and ion mass spectra of targeted compounds are shown in Figure 1. The precursor ion and product ion were m/z 517.1 → 174.9 for A5, m/z 547.0 → 204.9 for A6, m/z 753.2 → 205.2 for DSS, m/z 681.3 → 443.3 for TFSA, m/z 236.8 → 103.2 for TMCA and m/z 136.9 → 92.9 for IS. All data were acquired by using AB Sciex Analyst software (version 1.6.3).
After thawing the frozen blood samples at room temperature, a 100 μL aliquot of plasma was spiked with 50 μL of the IS working solution in 2 mL EP tubes, and 750 μL of methanol was added into each of the tubes. Then, these tubes were mixed on a multi-tube Vortexer for 0.5 min before centrifugation at 11,800×g for 10 min. Finally, 200 μL of the obtained supernatant was transferred to a fresh autosampler vial, and then 5 μL of the sample was injected for analysis.
Male SD rats were randomly divided into four groups (n = 6 in each group), including the RPT group, LPT group, HPT group and control group. All oral administration samples were mixed with 0.5% CMC-Na (w/v) and then given to rats at a dose equivalent to 1.9 g/kg of RPT extract. The control group was orally treatment with equal volume of 0.5% CMC-Na solution. After a single administration, all blood samples were collected from the orbital vein into heparinized centrifuge tubes before administration (0 h) and at 0.083, 0.17, 0.25, 0.5, 0.75, 1, 1.5, 2, 3, 5, 8 and 12 h after administration and then centrifuged at 4 °C and 11,800×g for 10 min. The separated supernatant samples were preserved at −80 °C until they were measured.
The elementary pharmacokinetic parameters of plasma samples were analyzed by DAS 2.0 pharmacokinetic software. One-way analysis of variance (ANOVA) was used for statistical comparison for pharmacokinetic and interaction studies. A p-value < 0.05 indicated a significant difference. The main parameters considered were as follows: AUC0–∞ (the area under the blood concentration-time curve from zero to infinity initial plasma concentration), MRT (the mean residence time), Cmax (peak plasma concentration) and Tmax (time to reach Cmax for oral dose), t1/2 (elimination half-life) (He et al. [2015]). The absolute bioavailability (F) was evaluated as follows: F(%)=(AUCoral×Dosei.v.)/(AUCi.v.×Doseoral)×100%

[2] = Stability of the five analytes in rat plasma; type: in vitro ADME; settings: rat plasma, n = 6; for Long-term stability, Mean: 4 weeks at −80 °C; for Short-term stability, Mean: 5 h at room temperature (25 °C); for Auto-sampler stability, Mean: 24 h in the autosampler at 4 °C; for Freeze-thaw stability, Mean: three freeze-thaw cycles from −20 °C to room temperature
Protocol: Stock standards of A5, A6, DSS, TFSA, TMCA and IS were prepared in methanol at a concentration of 1 mg/mL. A series of working standard solutions of the targeted compounds ranging from 10 to 20,000 ng/mL and the IS solution at 600 ng/mL were prepared by diluting the stock solutions with methanol and maintained at −20 °C. Calibration standards were freshly prepared by spiking the series of standard solutions (30 μL) including the IS into blank rat plasma (270 μL) to achieve concentrations of 1, 10, 50, 100, 500, 1000, 1600 and 2000 ng/mL. Quality control (QC) samples were prepared independently at low (2 ng/mL), medium (600 ng/mL) and high (1600 ng/mL) concentrations following the same method for the five compounds.
Stability studies included short-term stability (5 h at room temperature, i.e. 25 °C), freeze-thaw stability (three consecutive freeze-thaw cycles from −20 °C to room temperature), autosampler stability (24 h storage in the autosampler at 4 °C) and long-term stability (4 weeks storage at −80 °C). The stability data of all analytes are presented in Supplementary Table S4.

[3] = oral HPT extract equivalent to 1.9 g/kg of RPT extract
[4] = oral LPT extract equivalent to 1.9 g/kg of RPT extract

COc1cc(C=CC(=O)O)cc(OC)c1OC [TMCA, 3,4,5-trimethoxycinnamic acid]
AUC(0-t) [1, 3]: 124 ± 41.3 ng·h/mL
AUC(0-inf) [1, 3]: 184 ± 137 ng·h/mL
Cmax [1, 3]: 63.2 ± 14.2 ng/mL
MRT last [1, 3]: 4.19 ± 0.91 h
Tmax [1, 3]: 4.2 ± 1.2 min
half-life [1, 3]: 3.73 ± 2.34 h
AUC(0-t) [1, 4]: 135 ± 33.4 ng·h/mL
AUC(0-inf) [1, 4]: 173 ± 40.4 ng·h/mL
Cmax [1, 4]: 80.7 ± 11.1 ng/mL
MRT last [1, 4]: 3.56 ± 0.25 h
Tmax [1, 4]: 6 ± 2.4 min
half-life [1, 4]: 6.82 ± 1.82 h
AUC(0-t) ([1]; oral RPT extract 1.9 g/kg): 91.7 ± 29.1 ng·h/mL
AUC(0-inf) ([1]; oral RPT extract 1.9 g/kg): 132 ± 33.4 ng·h/mL
Cmax ([1]; oral RPT extract 1.9 g/kg): 38.8 ± 13.8 ng/mL
MRT last ([1]; oral RPT extract 1.9 g/kg): 4.37 ± 0.53 h
Tmax ([1]; oral RPT extract 1.9 g/kg): 7.8 ± 3 min
half-life ([1]; oral RPT extract 1.9 g/kg): 6.93 ± 2.96 h
Long-term stability, Mean ([2]; 2 ng/mL): 98.3%
Short-term stability, Mean ([2]; 2 ng/mL): 96.2%
Auto-sampler stability, Mean ([2]; 2 ng/mL): 96.3%
Freeze-thaw stability, Mean ([2]; 2 ng/mL): 95.3%
Long-term stability, Mean ([2]; 600 ng/mL): 95.5%
Short-term stability, Mean ([2]; 600 ng/mL): 98.3%
Auto-sampler stability, Mean ([2]; 600 ng/mL): 99.8%
Freeze-thaw stability, Mean ([2]; 600 ng/mL): 97.3%
Long-term stability, Mean ([2]; 1600 ng/mL): 95.8%
Short-term stability, Mean ([2]; 1600 ng/mL): 102.5%
Auto-sampler stability, Mean ([2]; 1600 ng/mL): 99.5%
Freeze-thaw stability, Mean ([2]; 1600 ng/mL): 98.8%
